Activity calls are given as the source filed them. The calls are words filed in the database; no cut-off is given here.

Experiment [1] can be described thus: Inhibition of bovine liver beta-glucosidase. Further details: species or system Bos taurus.
The subject of another experiment is Canavalia ensiformis. Briefly: (§1) Inhibition of jack beans alpha-mannosidase.
A further experiment relates to Cornu aspersum. Put plainly: Inhibition of snail beta-mannosidase.
The nature of experiment [2]: (§2) Inhibition of yeast alpha-glucosidase. Further details: species or system Saccharomyces cerevisiae.
A short description of experiment [3]: as §1. Further details: species or system Canavalia ensiformis.
The next experiment has as its system Prunus dulcis. Put plainly: Inhibition of almonds beta-glucosidase.
The next experiment relates to Penicillium decumbens. Put plainly: Inhibition of Penicillium decumbens naringinase.
The target in experiment [4] is Alpha-galactosidase (Coffea arabica) (UniProt Q5DUH8). Put plainly: Inhibition of green coffee beans alpha-galactosidase.
Alpha-galactosidase (Coffea arabica), sequence (Q5DUH8 as listed by the source): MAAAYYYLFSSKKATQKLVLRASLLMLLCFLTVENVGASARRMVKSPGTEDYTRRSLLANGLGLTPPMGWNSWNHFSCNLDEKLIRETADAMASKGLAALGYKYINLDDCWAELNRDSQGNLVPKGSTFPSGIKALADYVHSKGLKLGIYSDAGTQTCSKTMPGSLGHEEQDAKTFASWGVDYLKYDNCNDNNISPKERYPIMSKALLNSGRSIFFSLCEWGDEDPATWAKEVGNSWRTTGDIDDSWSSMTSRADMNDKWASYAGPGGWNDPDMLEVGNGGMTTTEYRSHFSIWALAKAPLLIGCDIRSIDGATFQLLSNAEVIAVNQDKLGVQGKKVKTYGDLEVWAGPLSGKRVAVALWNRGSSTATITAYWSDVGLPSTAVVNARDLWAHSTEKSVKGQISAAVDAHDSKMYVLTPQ
Experiment [5] has as its system Saccharomyces cerevisiae. Briefly: Inhibition of yeast isomaltase.
In experiment [6] the target is T1, Beta-galactosidase (Bos taurus) (UniProt Q58D55).
T1 sequence (whole entry): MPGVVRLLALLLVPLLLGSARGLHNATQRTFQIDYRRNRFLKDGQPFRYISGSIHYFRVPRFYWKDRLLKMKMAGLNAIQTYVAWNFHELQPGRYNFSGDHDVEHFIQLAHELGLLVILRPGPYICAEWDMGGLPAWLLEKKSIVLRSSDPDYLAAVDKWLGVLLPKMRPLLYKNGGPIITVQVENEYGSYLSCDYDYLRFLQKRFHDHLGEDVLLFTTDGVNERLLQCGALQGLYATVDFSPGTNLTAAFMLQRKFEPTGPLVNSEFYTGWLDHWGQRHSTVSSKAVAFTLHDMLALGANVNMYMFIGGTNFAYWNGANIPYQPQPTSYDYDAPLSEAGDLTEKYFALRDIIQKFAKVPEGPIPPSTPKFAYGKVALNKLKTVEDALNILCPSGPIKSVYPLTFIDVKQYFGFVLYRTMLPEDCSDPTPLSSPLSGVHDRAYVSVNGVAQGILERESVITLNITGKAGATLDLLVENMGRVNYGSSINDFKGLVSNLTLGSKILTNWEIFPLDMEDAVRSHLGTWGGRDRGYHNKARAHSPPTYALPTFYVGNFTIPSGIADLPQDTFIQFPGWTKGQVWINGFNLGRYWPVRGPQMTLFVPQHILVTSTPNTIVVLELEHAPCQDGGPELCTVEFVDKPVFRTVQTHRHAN
Put plainly: Inhibition of bovine liver beta-galactosidase.

The next experiment concerns Aspergillus niger. Briefly: Inhibition of Aspergillus niger amyloglucosidase.
Experiment [7] has as its target T2, Uncharacterized protein (Sus scrofa) (UniProt I3LIR5).
T2 sequence (whole entry): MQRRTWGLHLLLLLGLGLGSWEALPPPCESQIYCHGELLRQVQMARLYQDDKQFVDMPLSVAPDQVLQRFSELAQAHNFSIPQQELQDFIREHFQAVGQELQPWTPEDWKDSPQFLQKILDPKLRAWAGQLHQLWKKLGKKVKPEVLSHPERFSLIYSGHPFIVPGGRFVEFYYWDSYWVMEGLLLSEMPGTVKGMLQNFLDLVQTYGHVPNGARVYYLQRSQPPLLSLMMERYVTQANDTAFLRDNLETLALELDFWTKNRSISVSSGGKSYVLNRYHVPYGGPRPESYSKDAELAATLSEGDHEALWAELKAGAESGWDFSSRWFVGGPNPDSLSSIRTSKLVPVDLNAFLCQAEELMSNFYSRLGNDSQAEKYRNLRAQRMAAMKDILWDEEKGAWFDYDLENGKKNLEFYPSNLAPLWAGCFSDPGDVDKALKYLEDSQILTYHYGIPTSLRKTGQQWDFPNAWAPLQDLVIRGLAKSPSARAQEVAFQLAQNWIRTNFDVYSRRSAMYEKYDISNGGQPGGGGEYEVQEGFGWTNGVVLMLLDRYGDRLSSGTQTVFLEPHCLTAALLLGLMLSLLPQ
Put plainly: Inhibition of pig kidney trehalase.

Experiment [8] relates to Saccharomyces cerevisiae. Described as §2.

The term Ki denotes the equilibrium dissociation constant of an inhibitor or competing ligand from its target. Low readings indicate a stronger hold on the target, high ones a looser hold on the target. On to `CCCC/N=C1/OC[C@@H]2[C@@H](O)[C@H](O)[C@@H](O)[C@@H](O)N12`, for which affinity in experiment [1] was put at a Ki of 2.2 µM. In addition, the result with Canavalia ensiformis and in the experiment on Cornu aspersum was Active.
For `O=C1NC[C@@H]2[C@@H](O)[C@H](O)[C@@H](O)[C@@H](O)N12`, the result with Canavalia ensiformis and with Cornu aspersum was Active. The Ki in [2] amounted to 5700 µM.
For `O[C@@H]1[C@@H](O)[C@@H](O)N2C(=S)NC[C@@H]2[C@H]1O`, the result in the experiment on Canavalia ensiformis and in the experiment with Cornu aspersum was Active. In experiment [2], this compound came in with a Ki of 4200 µM.
Take `O[C@@H]1[C@@H](O)[C@@H](O)N2C(=S)OC[C@@H]2[C@H]1O`: the result in the experiment on Canavalia ensiformis and in the experiment on Cornu aspersum was Active. Also, the Ki in experiment [2] came to 2.2 µM.
For the compound `O=S1(=O)NC[C@@H]2[C@@H](O)[C@H](O)[C@H](O)C(O)N21` (stereo partly specified), affinity in [3] was put at a Ki of 150 µM.
Consider `O=S1(=O)NC[C@@H]2[C@@H](O)[C@H](O)[C@@H](O)C(O)N21` (stereo partly specified), for which the outcome (in the experiment on Prunus dulcis; in the experiment on Penicillium decumbens; in experiment [4]; with Saccharomyces cerevisiae [5]; in experiment [6]; in the experiment on Aspergillus niger) was inactive. The result (in experiment [7]; with Cornu aspersum; in the experiment with Saccharomyces cerevisiae [8]) was inactive. Moreover, in experiment [3], affinity was put at a Ki of 320 µM.
`O=C1OC[C@@H]2[C@@H](O)[C@H](O)[C@@H](O)[C@@H](O)N12`: the outcome in the experiment with Canavalia ensiformis and in the experiment with Cornu aspersum was Active. This compound also came in with a Ki in [2] of 40 µM.

These data come from ChEMBL document CHEMBL1145620, “Synthesis and evaluation of sulfamide-type indolizidines as glycosidase inhibitors” (Bioorg Med Chem Lett, 2008).
